Test results taken from ChEMBL document CHEMBL1933028, “Discovery of cyclic amine-substituted benzoic acids as PPARα agonists” (Bioorg Med Chem Lett, 2012).
pEC50: −log10 of the molar value.

Columns and labels:
Format in all cases: cell-based
[1] = target: T1, Peroxisome proliferator-activated receptor alpha (Homo sapiens, UniProt Q07869); experiment: Transactivation of human PPARalpha expressed in CHO-K1 cells
T1 sequence (Q07869 whole entry): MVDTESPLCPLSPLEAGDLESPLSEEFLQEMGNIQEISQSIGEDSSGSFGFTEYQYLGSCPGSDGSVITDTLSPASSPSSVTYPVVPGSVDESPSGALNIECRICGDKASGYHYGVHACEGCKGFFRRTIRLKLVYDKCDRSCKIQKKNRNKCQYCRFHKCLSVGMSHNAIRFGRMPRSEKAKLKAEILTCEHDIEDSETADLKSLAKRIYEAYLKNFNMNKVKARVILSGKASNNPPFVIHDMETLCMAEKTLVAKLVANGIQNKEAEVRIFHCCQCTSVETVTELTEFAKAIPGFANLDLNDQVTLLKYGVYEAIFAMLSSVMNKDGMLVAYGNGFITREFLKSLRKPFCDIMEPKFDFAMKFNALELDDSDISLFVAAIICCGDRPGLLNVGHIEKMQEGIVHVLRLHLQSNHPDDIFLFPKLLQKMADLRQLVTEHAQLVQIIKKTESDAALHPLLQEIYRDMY

[2] = target: T2, Peroxisome proliferator-activated receptor gamma (Homo sapiens, UniProt P37231); experiment: Transactivation of human PPARgamma expressed in CHO-K1 cells
T2 sequence (P37231 whole entry): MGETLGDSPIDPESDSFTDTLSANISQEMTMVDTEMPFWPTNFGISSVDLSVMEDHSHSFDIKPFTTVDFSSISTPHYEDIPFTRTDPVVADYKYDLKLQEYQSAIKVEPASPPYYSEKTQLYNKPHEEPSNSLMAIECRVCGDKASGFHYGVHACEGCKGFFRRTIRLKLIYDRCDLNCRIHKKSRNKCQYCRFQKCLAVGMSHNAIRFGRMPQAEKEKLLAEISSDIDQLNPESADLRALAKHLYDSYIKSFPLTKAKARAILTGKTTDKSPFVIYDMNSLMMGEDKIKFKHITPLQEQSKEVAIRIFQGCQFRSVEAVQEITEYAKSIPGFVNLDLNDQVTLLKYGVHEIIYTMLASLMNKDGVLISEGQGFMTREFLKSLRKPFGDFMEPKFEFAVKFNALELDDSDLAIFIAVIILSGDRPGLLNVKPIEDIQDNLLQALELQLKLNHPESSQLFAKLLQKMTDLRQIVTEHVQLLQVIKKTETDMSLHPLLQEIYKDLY

[3] = target: T3, Peroxisome proliferator-activated receptor delta (Homo sapiens, UniProt Q03181); experiment: Transactivation of human PPARdelta expressed in CHO-K1 cells
T3 sequence (Q03181 whole entry): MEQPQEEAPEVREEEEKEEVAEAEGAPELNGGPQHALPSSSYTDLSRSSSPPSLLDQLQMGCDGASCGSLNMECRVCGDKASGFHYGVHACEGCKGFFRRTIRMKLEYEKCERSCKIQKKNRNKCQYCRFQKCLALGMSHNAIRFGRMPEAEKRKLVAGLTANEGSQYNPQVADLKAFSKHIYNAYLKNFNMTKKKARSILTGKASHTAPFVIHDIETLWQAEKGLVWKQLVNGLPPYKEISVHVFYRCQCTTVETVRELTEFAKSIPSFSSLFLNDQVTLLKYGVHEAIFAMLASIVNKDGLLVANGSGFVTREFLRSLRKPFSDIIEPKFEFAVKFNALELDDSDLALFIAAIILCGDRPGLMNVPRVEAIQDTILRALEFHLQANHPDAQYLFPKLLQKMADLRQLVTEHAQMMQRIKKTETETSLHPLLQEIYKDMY

[4] = target: T3, Peroxisome proliferator-activated receptor delta; experiment: Transactivation of human PPARdelta expressed in CHO-K1 cells at 30 uM

Row | Structure (SMILES) | pEC50 [1] | pEC50 [2] | pEC50 [3] | EC50 [4]
1 | COc1ccc(-c2cccc(C(=O)O)c2)cc1CNC(=O)c1ccc(Oc2ccccc2)cc1 | 6.15 | 5.23 | 6.33 | 
2 | O=C(O)c1cccc(N2CCCC(CNC(=O)c3ccc(Oc4ccc(F)cc4)cc3)C2)c1 (centres undefined) | 5.36 |  |  | 
3 | Cc1nc(-c2ccc(Cl)cc2)sc1C(=O)NCC1CCCN(c2cccc(C(=O)O)c2)C1 (centres undefined) | 6.12 | < 5.31 |  | Not Active
4 | Cc1nc(-c2ccc(Cl)cc2)sc1C(=O)NCC1CCN(c2cccc(C(=O)O)c2)CC1 | < 5.46 |  |  | 
5 | Cc1nc(-c2ccc(Cl)cc2)sc1C(=O)NCC1CCN(c2cccc(C(=O)O)c2)C1 (centres undefined) | 6.07 | < 5.00 |  | Not Active
6 | Cc1nc(-c2ccc(Cl)cc2)sc1C(=O)NCC1CCCCN(c2cccc(C(=O)O)c2)C1 (centres undefined) | 6.15 |  |  | 
7 | Cc1nc(-c2ccc(Cl)cc2)sc1C(=O)NCC1CN(c2cccc(C(=O)O)c2)CCO1 (centres undefined) | 6.09 | < 4.82 | < 4.77 | 
8 | Cc1nc(-c2ccc(Cl)cc2)sc1CNC(=O)C1CCCN(c2cccc(C(=O)O)c2)C1 (centres undefined) | < 4.85 |  |  | 
9 | Cc1nc(-c2ccc(Cl)cc2)sc1CC(=O)NC1CCCN(c2cccc(C(=O)O)c2)C1 (centres undefined) | < 4.92 |  |  | 
10 | Cc1nc(-c2ccc(Cl)cc2)sc1C(=O)NC1CCCN(c2cccc(C(=O)O)c2)C1 (centres undefined) | 8.30 | < 5.00 | < 5.38 | 
11 | Cc1nc(-c2ccc(Cl)cc2)sc1NC(=O)C1CCCN(c2cccc(C(=O)O)c2)C1 (centres undefined) | 6.55 | < 4.89 |  | Not Active
12 | Cc1nc(-c2ccc(Cl)cc2)sc1C(=O)N(C)C1CCCN(c2cccc(C(=O)O)c2)C1 (centres undefined) | 5.47 |  |  | 
13 | Cc1nc(-c2ccc(Cl)cc2)sc1CNC1CCCN(c2cccc(C(=O)O)c2)C1 (centres undefined) | 5.62 | < 4.89 | < 4.89 | 
14 | Cc1nc(-c2ccc(Cl)cc2)sc1COC1CCCN(c2cccc(C(=O)O)c2)C1 (centres undefined) | 6.60 | < 5.01 | < 5.20 | 
15 | Cc1nc(-c2ccc(Cl)cc2)sc1/C=C/C1CCCN(c2cccc(C(=O)O)c2)C1 (centres undefined) | 6.92 | < 5.01 | < 5.09 | 
16 | Cc1nc(-c2ccc(Cl)cc2)sc1CCC1CCCN(c2cccc(C(=O)O)c2)C1 (centres undefined) | 6.09 | < 5.17 | < 5.17 | 
17 | Cc1nc(-c2ccc(Cl)cc2)sc1C(=O)NC1CCCN(c2ccccc2C(=O)O)C1 (centres undefined) | < 5.22 |  |  | 
18 | Cc1nc(-c2ccc(Cl)cc2)sc1C(=O)NC1CCCN(c2ccc(C(=O)O)cc2)C1 (centres undefined) | 5.82 |  |  | 
19 | Cc1nc(-c2ccc(Cl)cc2)sc1C(=O)N[C@@H]1CCCN(c2cccc(C(=O)O)c2)C1 | 5.92 | < 5.00 |  | Not Active
20 | Cc1sc(-c2ccc(Cl)cc2)nc1C(=O)N[C@H]1CCCN(c2cccc(C(=O)O)c2)C1 | < 5.47 |  |  | 
21 | Cc1nc(-c2ccc(Cl)cc2)oc1C(=O)N[C@H]1CCCN(c2cccc(C(=O)O)c2)C1 | 5.82 | < 4.92 | < 4.89 | 
22 | Cc1nc(-c2ccccc2)sc1C(=O)N[C@H]1CCCN(c2cccc(C(=O)O)c2)C1 | 7.14 | < 4.72 | 5.15 | 
23 | Cc1nc(-c2cccc(Cl)c2)sc1C(=O)N[C@H]1CCCN(c2cccc(C(=O)O)c2)C1 | 7.59 | < 5.28 | 5.62 | 
24 | Cc1nc(-c2ccccc2Cl)sc1C(=O)N[C@H]1CCCN(c2cccc(C(=O)O)c2)C1 | 7.28 | < 5.17 | 5.72 | 
25 | Cc1nc(-c2ccc(F)cc2)sc1C(=O)N[C@H]1CCCN(c2cccc(C(=O)O)c2)C1 | 7.68 | < 5.01 | 5.06 | 
26 | Cc1ccc(-c2nc(C)c(C(=O)N[C@H]3CCCN(c4cccc(C(=O)O)c4)C3)s2)cc1 | 8.22 | < 4.96 | 5.51 | 
27 | COc1ccc(-c2nc(C)c(C(=O)N[C@H]3CCCN(c4cccc(C(=O)O)c4)C3)s2)cc1 | 7.64 | < 4.96 | 5.74 | 
28 | Cc1nc(-c2ccc([N+](=O)[O-])cc2)sc1C(=O)N[C@H]1CCCN(c2cccc(C(=O)O)c2)C1 | 7.43 | < 4.89 | < 4.96 | 
29 | CC[C@@H](Cc1ccc(OC)c(C(=O)NCc2ccc(Oc3ccc(F)cc3)cc2)c1)C(=O)O | 7.89 | 5.60 | 5.72 | 
